Legend:
[1] = system: Green Peach Aphid (Myzus persicae); test: Test on controlling effects against green peach aphid (leaf dip); format: in vivo; settings: foliar, 120 h, Japanese radish leaf dipped about 10 seconds, first instar nymphs, 5 days after the treatment, 25° C.
Source text: Test on Controlling Effects Against Green Peach Aphid (Myzus persicae)
A Japanese radish leaf was inserted in a test tube in which water was put, and about 20 first instar nymphs of green peach aphid were released on the leaf. On the next day, the number of nymphs parasitic on the leaf was counted, and then the leaf was dipped for about 10 seconds in an insecticidal solution adjusted to bring the concentration of the compound of the present invention to 200 ppm, dried in air and left in a constant temperature chamber at 25° C. with lightening. Dead nymphs were counted 5 days after the treatment, and the mortality was calculated by the following equation. The insects dropped from the leaf or presented toxic symptom were counted as dead insects.
Mortality (%)=(1−(number of survived insects/number of treated insects))×100

[2] = system: Brown Planthopper (Nilaparvata lugens); test: Test on controlling effects against brown planthopper (rice seedling dip); format: in vivo; settings: rice seedling dipped about 10 seconds, second-third instar nymphs, 5th day after the release, 25° C.
Source text: Test on Controlling Effects Against Brown Planthopper (Nilaparvata lugens)
Rice seedling was dipped for about 10 seconds in an insecticidal solution adjusted to bring the concentration of the compound of the present invention to 200 ppm and then dried in air, its root was wrapped with a wet absorbent cotton, and the seedling was put into a test tube. Then, 10 second-third instar nymphs of Brown Planthopper were released therein, and the test tube was covered with a gauze and left in a constant temperature chamber at 25° C. with lightening. On the 5th day after the release, dead nymphs were counted, and the mortality was calculated by the following equation.
Mortality (%)=(number of dead insects/number of released insects)×100

Row | SMILES | mortality at 200 ppm [1] | mortality at 200 ppm [2]
1 | CCON=C(c1ncc(C(F)(F)F)cc1Cl)n1cncn1 [Compound No. 10, [3-chloro-5-(trifluoromethyl)pyridin-2-yl](1H-1,2,4-triazol-1-yl)methanone O-oxime] | ≥ 90% | ≥ 90%
2 | CC(C)ON=C(c1ncc(C(F)(F)F)cc1Cl)n1cncn1 [Compound No. 13, [3-chloro-5-(trifluoromethyl)pyridin-2-yl](1H-1,2,4-triazol-1-yl)methanone O-isopropyl oxime] |  | ≥ 90%
3 | CCON=C(c1ncc(C(F)(F)F)cc1Cl)n1ccnc1 [compound 11] | ≥ 90% | ≥ 90%
4 | CCON=C(c1ncc(C(F)(F)F)cc1Cl)n1cnnc1 [compound 12] |  | ≥ 90%
5 | CON=C(c1ncc(C(F)(F)F)cc1Cl)n1cncn1 [compound 14] | ≥ 90% | ≥ 90%
6 | CCON=C(c1cccc(C)n1)n1cncn1 [compound 23] |  | ≥ 90%
7 | CCON=C(c1ccc(C(F)(F)F)cn1)n1cncn1 [compound 24] |  | ≥ 90%
8 | CCON=C(c1ncccc1C(F)(F)F)n1cncn1 [compound 25] |  | ≥ 90%
9 | CCON=C(c1cc(C(F)(F)F)ccn1)n1cncn1 [compound 26] |  | ≥ 90%
10 | CCON=C(c1ncc(C(F)(F)F)cc1Br)n1cncn1 [compound 31] | ≥ 90% | ≥ 90%
11 | FC(F)(F)c1cnc(C(=NOCC2CC2)n2cncn2)c(Cl)c1 [compound 32] | ≥ 90% | ≥ 90%
12 | CCON=C(c1ncc(C(F)(F)F)cc1C)n1cncn1 [compound 33, [3-methyl-5-(trifluoromethyl)pyridin-2-yl](1H-1,2,4-triazol-1-yl)methanone O-ethyl oxime] | ≥ 90% | ≥ 90%
13 | CCON=C(c1cccc(C(F)(F)F)n1)n1cncn1 [compound 83] |  | ≥ 90%
14 | CCON=C(c1nc(C(F)(F)F)ccc1Cl)n1cncn1 [compound 84] |  | ≥ 90%
